Values quoted from earlier work in patent US5514673A, “Pharmaceutical composition containing lipophilic drugs” (priority 1993, dated 1996).

Legend:
[1] = physiological saline solution
[2] = for first pass effect: oral
[3] = animal tests
[4] = in vivo
[5] = sublingual and buccal, sex hormone compositions

Compound	suitability of intranasal administration [1]	oral effectiveness [2]	first pass effect [2]	influence on drug uptake [3]	nephrotoxicity and haemolytic activity [4]	effect on the absorption [5]
C[C@]12CC[C@@H]3c4ccc(O)cc4CC[C@H]3[C@@H]1CC[C@@H]2O [17β-estradiol]	unsuitable	very limited oral effectiveness	high first pass effect			
dimethyl-β-cyclodextrin				adversely influence the drug uptake	nephrotoxicity and haemolytic activity	virtually no effect on the absorption
CC(=O)[C@H]1CC[C@H]2[C@@H]3CCC4=CC(=O)CC[C@]4(C)[C@H]3CC[C@]12C [Progesterone, progesterone]		very limited oral effectiveness	high first pass effect			
